The values below come from patent US4885314A, “Novel HMG-CoA reductase inhibitors” (Merck & Co., Inc., priority 1988, dated 1989).

The experiment has as its system HMG-CoA reductase. Description: in vitro HMG-CoA reductase inhibition (protocol of J. Med. Chem., 1985, 28, page 347). The format is biochemical. The conditions noted are these: percent of the activity exhibited by mevinolin in the same protocol. The procedure: The intrinsic HMG-CoA reductase inhibition activity of the claimed compounds is measured in the in vitro protocol described is J. Med. Chem., 1985, 28, page 347.

In turn, `C=C1C=C2C=C[C@H](C)[C@H](CC[C@@H](O)C[C@@H](O)CC(=O)O)C2[C@@H](OC(=O)C(C)CC)C1` (stereo partly shown) registered a relative inhibitory activity of 50%.
